Experimental data from paper PMC5663395, “Chemical Validation of Methionyl-tRNA Synthetase as a Druggable Target in Leishmania donovani” (ACS Infectious Diseases, 2017).
Where two headings read alike, the source gives them in different places.

What was measured:
[1] = Plasma protein binding, equilibrium dialysis, mouse plasma; format: in vitro ADME; conditions: female, CD1, read-out: fu (unbound fraction)
Procedure: which gave the best fit to the data was then recorded as the logP. Using the logP and an experimentally determined pKa (see above), the software generated a lipophilicity plot showing changes in the logD with increasing pH and from this plot a logD7.3 and logD5.6 values were recorded.
Plasma Protein Binding Determination
A 96-well equilibrium dialysis apparatus was used to determine the free fraction in plasma for DDD806905 (HT Dialysis LLC, Gales Ferry, CT). Membranes (12-14 kDA cut-off) were conditioned in deionised water for 60 minutes, followed by conditioning in 80:20 deionised water:ethanol for 20 minutes, and then rinsed in isotonic buffer before use. Female CD1 mouse plasma or human plasma was removed from the freezer and allowed to thaw on the day of experiment. Thawed plasma was then centrifuged (Allegra X12-R, Beckman Coulter, USA), spiked with test compound (final concentration 10 μg/ml), and 150 μL aliquots (n=6 replicate determinations) loaded into the 96-well equilibrium dialysis plate. […] All samples were analysed by UPLC-MS/MS on a Quattro Premier XE Mass Spectrometer (Waters Corporation, USA).
The unbound fraction (fu) was determined as the ratio of the peak area in buffer to that in plasma. […]

[2] = LogD measurement (Sirius T3, potentiometric); format: physicochemical; conditions: octanol/water
Procedure: (§1) calculated, both in terms of pEC50 values. MIC (minimum inhibitory concentration) values are defined as the lowest concentration tested at which maximal inhibition is reached.
(§2) THP-1 cells were differentiated in 96-well plates with PMA as described above. Following differentiation the cells were treated for 30 min with dose-response curves of test compounds in presence of 100 nM LysoTracker Red DND-99 (Thermo Fisher) and 5 µg/ml Hoechst 33342. Next cells were washed 3 times with Hanks Buffered Saline Solution (Gibco) and imaged on a Perkin Elmer Operetta system. An image analysis algorithm to measure mean Lysotracker Red DND-99 intensity per cell was developed in Columbus. […]
(§3) To measure the pKa of DDD806905, a fast UV-metric method was performed using a Sirius T3 instrument (Sirius Analytical, U.K.). The calculation of the pKa was determined using the Sirius T3 refine software (Sirius Analytical, U.K.). In brief, the UV-metric pKa method is based on measuring pH during an acid-base titration and monitoring UV absorbance shift. […] The appearance of precipitate was monitored throughout the experiment by a turbidity sensing device. […] The pKas of DDD806905 was determined at the pH where there was maximal change in UV absorbance with respect to pH. […]
(§4) LogD7.4 values were quantified using a Sirius T3 instrument (Sirius Analytical, U.K.). […]
which gave the best fit to the data was then recorded as the logP. […]

[3] = pKa measurement (Sirius T3, UV-metric); format: physicochemical
Procedure: as §1, §2, §3, §4

For `Cl.Cl.O=c1nc(NCCCNCc2cc3c(Cl)cc(Cl)cc3[nH]2)[nH]c2ccccc12` [DDD806905, 2-((3-(((4,6-dichloro-1H-indol-2-yl)methyl)amino)propyl)amino)quinazolin-4(1H)-one dihydrochloride], which fraction unbound at 5 h, 10 μg/ml [1] is on record?
Its fraction unbound at 5 h, 10 μg/ml is 0.006.

And the logD ([2]; pH 5.6, read-out: log D5.6)?
Its logD is 0.3.

And the logD ([2]; pH 7.3, read-out: log D7.3)?
The logD was 2.6.

What about the “compound present in un-ionized state” value ([3]; pH 5.6) of the same compound?
The value was roughly 0%.

And the “compound present in un-ionized state” value ([3]; pH 7.3)?
The value was 0.01%.
